What all share (experiment): In Vitro Anti-Bacterial Activity Test (MIC, agar dilution)
Holding throughout (type): cell-based

In one experiment the test system is Escherichia coli 078. Summed up: (§1)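 Via the agar dilution method, compound-supplemented Muller-Hinton plates received 10^7 C.F.U./ml inocula. Incubation ran 18 hours at 37° C., and MIC corresponded to the lowest concentration without growth.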
Experiment [1] relates to Streptococcus faecium MD8b. The note with it: Enterococcus faecium, Muller-Hinton agar, 37° C., 18 hours, read-out: MIC. The essentials: as §1
The subject of another experiment is Klebsiella oxytoca 1082E. The note with it: Klebsiella oxytoca 1082E; Muller-Hinton agar, 37° C., 18 hours; read-out: MIC. Summed up: as §1
Experiment [2] has as its system Staphylococcus aureus 503. The note with it: Staphylococcus aureus 503; Muller-Hinton agar, 37° C., 18 hours; read-out: MIC. The essentials:
as §1

In experiment [3] the test system is Staphylococcus aureus 285. The note with it: Staphylococcus aureus, 285, 18 h, Staphylococcus aureus 285; Muller-Hinton agar, 37° C., 18 hours; read-out: MIC. Summed up: as §1
In experiment [4] the test system is Pseudomonas aeruginosa 1771. The note with it: Pseudomonas aeruginosa 1771; Muller-Hinton agar, 37° C., 18 hours; read-out: MIC. The essentials: as §1
Another experiment concerns Escherichia coli 1507E. The note with it: Muller-Hinton agar, 37° C. Summed up: as §1
The subject of the next experiment is Escherichia coli DC0. The note with it: Muller-Hinton agar, 37° C., 18 hours, read-out: MIC. Summed up:
as §1

Experiment [5] deals with Streptococcus pyogenes 308A. The note with it: Muller-Hinton agar, 37° C., 18 hours, read-out: MIC. Summed up:
as §1

The test system of another experiment is Salmonella typhimurium. The note with it: Salmonella enterica; Salmonella typhimurium; Muller-Hinton agar, 37° C., 18 hours; read-out: MIC. The essentials:
as §1

Experiment [6] has as its system Pseudomonas aeruginosa 1771M. The note with it: Pseudomonas aeruginosa, 1771M, 18 h, Muller-Hinton agar, 37° C. The essentials:
as §1

Experiment [7] deals with Streptococcus pyogenes 77A. The note with it: Streptococcus pyogenes 77A; Muller-Hinton agar, 37° C., 18 hours; read-out: MIC. Summed up: as §1
The next experiment deals with Escherichia coli TEM. The note with it: Escherichia coli, 18 h, Muller-Hinton agar, 37° C. Summed up:
(§2)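 Minimum inhibitory concentrations were determined by dilution of test compounds in Muller-Hinton agar, onto which 10^7 C.F.U./ml bacterial suspensions were inoculated and incubated at 37° C. for 18 hours.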

For experiment [8], the system named is Pseudomonas aeruginosa 9027. The note with it: Muller-Hinton agar, 37° C., 18 hours, read-out: MIC. The essentials: as §1
For the next experiment, the system named is Escherichia coli DC2. The note with it: Escherichia coli, DC2, 18 h. The essentials: as §1
The test system of experiment [9] is Klebsiella aerogenes 1522E. The note with it: Klebsiella aerogenes, 1522E, 18 h, Klebsiella aerogenes 1522E; Muller-Hinton agar, 37° C., 18 hours; read-out: MIC. The essentials:
as §1

The subject of experiment [10] is Enterobacter cloacae 1321E. The essentials: as §1
For experiment [11], the system named is Staphylococcus aureus SG511. The note with it: Staphylococcus aureus SG511; Muller-Hinton agar, 37° C., 18 hours; read-out: MIC. The essentials:
as §1

The next experiment deals with Enterobacter cloacae P99. The note with it: Enterobacter cloacae, P99, 18 h. The essentials:
as §2

Experiment [12] concerns Pseudomonas aeruginosa 1592E. The note with it: Muller-Hinton agar, 37° C., 18 hours, read-out: MIC. The essentials:
as §1

The mark [13] stands for this setting: Escherichia coli 078, Muller-Hinton agar, 37° C., 18 hours, read-out: MIC.
Setting [14] is: Enterobacter cloacae 1321E, Muller-Hinton agar, 37° C., 18 hours, read-out: MIC.

The structures appear in SMILES notation. Structures can show the parent of a compound that is named as a salt. Where two headings read alike, the source gives them in different places.

`CNCC1=CCN(c2c(F)cc3c(=O)c(C(=O)CC#N)cn(C4CC4)c3c2Cl)C1` [Example 43, 1-cyclopropyl-6-fluoro-8-chloro-7-(3-methylaminomethyl-2,5-dihydropyrrol-1-yl)-3-(2-cyanoacetyl)-1,4-dihydro-4-oxoquinoline hydrochloride]: the MIC is 6.25 µg/mL with Escherichia coli 078 (setting [13]); 12.5 µg/mL in [1]; 0.098 µg/mL with Klebsiella oxytoca 1082E; 0.195 µg/mL in experiment [2]; 3.12 µg/mL in experiment [3]; 3.12 µg/mL in experiment [4]. The MIC in the experiment on Escherichia coli 1507E (18 hours, read-out: MIC) is 12.5 µg/mL; in the experiment with Escherichia coli DC0, 3.12 µg/mL; in experiment [5] it was 25 µg/mL; in the experiment on Salmonella typhimurium it was 0.195 µg/mL; in experiment [6], 1.56 µg/mL; in experiment [7], 25 µg/mL. Moreover, the MIC in the experiment with Escherichia coli TEM was 1.56 µg/mL; in experiment [8] it was 6.25 µg/mL; with Escherichia coli DC2, 1.56 µg/mL; in experiment [9], 0.781 µg/mL; in experiment [10] (setting [14]), 0.049 µg/mL; in [11] it was 3.12 µg/mL. Also, the MIC was found to be 0.391 µg/mL in the experiment with Enterobacter cloacae P99 and 12.5 µg/mL in [12].

With `CCOC(=O)C(C(=O)OCC)C(=O)c1cn(C2CC2)c2c(Cl)c(N3CC[C@H](N)C3)c(F)cc2c1=O` [Example 24, 1-cyclopropyl-6-fluoro-8-chloro-7-(3-3S-aminopyrrolidin-1-yl)-3-(2,2-diethoxycarbonylacetyl)-1,4-dihydro-4-oxoquinoline hydrochloride], the MIC in the experiment with Escherichia coli 078 (setting [13]) is less than 0.002 µg/mL; in experiment [1] it was 0.391 µg/mL; in the experiment with Klebsiella oxytoca 1082E, less than 0.002 µg/mL; in experiment [2], 0.049 µg/mL; in experiment [3] it was 0.049 µg/mL; in experiment [4], 0.391 µg/mL. The MIC with Escherichia coli 1507E (18 hours, read-out: MIC) was less than 0.002 µg/mL; in the experiment on Escherichia coli DC0, 0.098 µg/mL; in [5], 0.391 µg/mL; with Salmonella typhimurium, less than 0.002 µg/mL; in experiment [6], 0.049 µg/mL; in experiment [7] it was 0.391 µg/mL. Also, the minimal inhibitory concentration (MIC) against Escherichia coli TEM is less than 0.002 µg/mL; in [8], 0.391 µg/mL; against Escherichia coli DC2, 0.025 µg/mL; in [9] it was 0.013 µg/mL; in experiment [10] (setting [14]), less than 0.002 µg/mL; in [11] it was 0.049 µg/mL. Moreover, the MIC in the experiment with Enterobacter cloacae P99 was less than 0.002 µg/mL; in [12], 0.391 µg/mL.

Turning to `CCOC(=O)CC(=O)c1cn(C2CC2)c2c(Cl)c(N3CCC(N)C3)c(F)cc2c1=O` (stereo not drawn) [Example 25, 1-cyclopropyl-6-fluoro-8-chloro-7-(3-aminopyrrolidin-1-yl)-3-(2-ethoxycarbonylacetyl)-1,4-dihydro-4-oxoquinoline hydrochloride], the MIC with Escherichia coli 078 (setting [13]) was less than 0.002 µg/mL; in [1] it was 0.391 µg/mL; in the experiment with Klebsiella oxytoca 1082E it was less than 0.002 µg/mL; in experiment [2] it was 0.049 µg/mL; in experiment [3] it was 0.049 µg/mL; in [4], 0.195 µg/mL. Moreover, the MIC is 0.025 µg/mL against Escherichia coli 1507E (Escherichia coli, 1507E, 18 h); 0.098 µg/mL with Escherichia coli DC0; 0.781 µg/mL in experiment [5]; 0.004 µg/mL with Salmonella typhimurium; 0.098 µg/mL in [6]; 0.391 µg/mL in [7]. Also, the MIC in the experiment on Escherichia coli TEM was less than 0.002 µg/mL; in experiment [8], 0.391 µg/mL; in the experiment with Escherichia coli DC2, 0.025 µg/mL; in experiment [9], 0.013 µg/mL; in experiment [10] (setting [14]), less than 0.002 µg/mL; in [11], 0.098 µg/mL. The minimal inhibitory concentration (MIC) was found to be 0.004 µg/mL with Enterobacter cloacae P99 and 0.195 µg/mL in experiment [12].

Turning to `NC1CCN(c2c(F)cc3c(=O)c(C(=O)C[N+](=O)[O-])cn(C4CC4)c3c2Cl)C1` (stereo not drawn) [Example 11, 1-cyclopropyl-6-fluoro-8-chloro-7-(3-aminopyrrolidin-1-yl)-3-(2-nitroacetyl)-1,4-dihydro-4-oxoquinoline hydrochloride], the minimum inhibitory concentration (MIC) is less than 0.002 µg/mL in the experiment with Escherichia coli 078 (setting [13]); 0.098 µg/mL in [1]; less than 0.002 µg/mL with Klebsiella oxytoca 1082E; 0.025 µg/mL in experiment [2]; 0.025 µg/mL in [3]; 0.098 µg/mL in experiment [4]. Besides, the MIC with Escherichia coli 1507E (18 hours, read-out: MIC) was less than 0.002 µg/mL; in the experiment on Escherichia coli DC0, 0.049 µg/mL; in experiment [5] it was 0.195 µg/mL; with Salmonella typhimurium, less than 0.002 µg/mL; in experiment [6], 0.025 µg/mL; in [7] it was 0.098 µg/mL. Also, the minimum inhibitory concentration (MIC) in the experiment on Escherichia coli TEM is less than 0.002 µg/mL; in experiment [8], 0.195 µg/mL; in the experiment with Escherichia coli DC2 it was 0.013 µg/mL; in experiment [9] it was 0.007 µg/mL; in [10] (setting [14]), less than 0.002 µg/mL; in experiment [11] it was 0.013 µg/mL. In addition, the MIC in the experiment with Enterobacter cloacae P99 is less than 0.002 µg/mL; in [12], 0.195 µg/mL.

For the molecule `CN[C@H]1CCN(c2c(F)cc3c(=O)c(C(=O)C[N+](=O)[O-])cn(C4CC4)c3c2Cl)C1` [Example 62, 1-cyclopropyl-6-fluoro-8-chloro-7-(3-3S-methylaminopyrrolidin-1-yl)-3-(2-nitroacetyl)-1,4-dihydro-4-oxoquinoline hydrochloride], the MIC in the experiment with Escherichia coli 078 (setting [13]) was less than 0.002 µg/mL; in experiment [1], 0.049 µg/mL; with Klebsiella oxytoca 1082E it was less than 0.002 µg/mL; in experiment [2], 0.013 µg/mL; in experiment [3], 0.025 µg/mL; in experiment [4] it was 0.098 µg/mL. For the same molecule, the MIC in the experiment on Escherichia coli 1507E (Escherichia coli, 1507E, 18 h) is 0.007 µg/mL; in the experiment on Escherichia coli DC0 it was 0.025 µg/mL; in [5] it was 0.098 µg/mL; in the experiment with Salmonella typhimurium it was 0.025 µg/mL; in [6] it was 0.098 µg/mL; in experiment [7] it was 0.049 µg/mL. The MIC in the experiment with Escherichia coli TEM came to 0.007 µg/mL; in [8] it was 0.195 µg/mL; in the experiment on Escherichia coli DC2, 0.013 µg/mL; in experiment [9], 0.007 µg/mL; in experiment [10] (Enterobacter cloacae, 1321E, 18 h) it was 0.007 µg/mL; in experiment [11], 0.013 µg/mL. For the same molecule, the MIC against Enterobacter cloacae P99 was found to be 0.007 µg/mL; in [12] it was 0.098 µg/mL.

As for `Cc1c(N2CCC(N)C2)c(F)cc2c(=O)c(C(=O)C[N+](=O)[O-])cn(C3CC3)c12` (stereo not drawn) [Example 50, 1-cyclopropyl-6-fluoro-8-methyl-7-(3-aminopyrrolidin-1-yl)-3-(2-nitroacetyl)-1,4-dihydro-4-oxoquinoline hydrochloride], the MIC in the experiment with Escherichia coli 078 (Escherichia coli, 078, 18 h) came to 0.025 µg/mL; in experiment [1], 0.195 µg/mL; in the experiment on Klebsiella oxytoca 1082E it was 0.013 µg/mL; in experiment [2], 0.098 µg/mL; in experiment [3], 0.098 µg/mL; in experiment [4], 1.56 µg/mL. The minimum inhibitory concentration (MIC) against Escherichia coli 1507E (Escherichia coli, 1507E, 18 h) amounted to 0.098 µg/mL; with Escherichia coli DC0, 0.195 µg/mL; in [5], 0.781 µg/mL; in the experiment with Salmonella typhimurium, 0.013 µg/mL; in experiment [6], 0.391 µg/mL; in experiment [7], 0.391 µg/mL. The MIC in the experiment with Escherichia coli TEM is 0.049 µg/mL; in [8] it was 1.56 µg/mL; in the experiment on Escherichia coli DC2, 0.049 µg/mL; in experiment [9], 0.195 µg/mL; in experiment [10] (setting [14]), 0.013 µg/mL; in experiment [11], 0.098 µg/mL. Besides, the values for the MIC (against Enterobacter cloacae P99; in experiment [12]) were 0.013 µg/mL and 0.781 µg/mL, respectively.
